Results published in ChEMBL document CHEMBL3046347, “Synthesis and biological evaluation of novel curcumin analogues as anti-inflammatory, anti-cancer and anti-oxidant agents” (Med Chem Res, 2012).

Experiments:
ACHN [1] = experiment: Cytotoxicity against Homo sapiens (human) ACHN cells at 500 nM after 48 hr by propidium iodide-based fluorometric assay; assay type: functional; settings: read-out: GI
HCT-116 [2] = experiment: Cytotoxicity against Homo sapiens (human) HCT116 cells at 500 nM after 48 hr by propidium iodide-based fluorometric assay; assay type: functional; settings: HCT-116, 48 h, read-out: GI
[3] = Cytotoxicity against Homo sapiens (human) H460 cells at 500 nM after 48 hr by propidium iodide-based fluorometric assay; assay type: functional; settings: NCI-H460, 48 h, read-out: GI
PANC-1 [4] = experiment: Cytotoxicity against Homo sapiens (human) PANC1 cells at 500 nM after 48 hr by propidium iodide-based fluorometric assay; assay type: functional; settings: PANC-1, 48 h, read-out: GI
Calu-1 [5] = experiment: Cytotoxicity against Homo sapiens (human) Calu1 cells at 500 nM after 48 hr by propidium iodide-based fluorometric assay; assay type: functional; settings: Calu-1, 48 h, read-out: GI
THP-1 [6] = experiment: Anti-inflammatory activity in Homo sapiens (human) THP1 cells assessed as inhibition of LPS-induced TNFalpha production at 1 uM incubated for 30 min prior to LPS-challenge measured after 24 hr by ELISA; assay type: functional
THP-1 [7] = experiment: Anti-inflammatory activity in Homo sapiens (human) THP1 cells assessed as inhibition of LPS-induced IL6 production at 1 uM incubated for 30 min prior to LPS-challenge measured after 24 hr by ELISA; assay type: functional
[8] = Cytotoxicity against Homo sapiens (human) […] cells at 1 uM; assay type: cell-based
THP-1 [9] = experiment: Anti-inflammatory activity in Homo sapiens (human) THP1 cells assessed as inhibition of LPS-induced IL6 production at 10 uM incubated for 30 min prior to LPS-challenge measured after 24 hr by ELISA; assay type: functional
[10] = Antioxidant activity assessed as hydroxyl radical scavenging activity at 1 uM by spectrophotometric analysis; assay type: functional
HCT-116 [11] = experiment: Cytotoxicity against Homo sapiens (human) HCT116 cells at 10 uM after 48 hr by propidium iodide-based fluorometric assay; assay type: functional; settings: HCT-116, 48 h, read-out: GI
[12] = Cytotoxicity against Homo sapiens (human) […] cells at 10 uM; assay type: cell-based
THP-1 [13] = experiment: Anti-inflammatory activity in Homo sapiens (human) THP1 cells assessed as inhibition of LPS-induced TNFalpha production at 10 uM incubated for 30 min prior to LPS-challenge measured after 24 hr by ELISA; assay type: functional
[14] = biological target: T1, Prostaglandin G/H synthase 2 (Ovis aries) (UniProt P79208); experiment: Inhibition of Ovis aries (sheep) COX2 at 1 uM after 5 min by colorimetric analysis
T1 sequence (whole entry): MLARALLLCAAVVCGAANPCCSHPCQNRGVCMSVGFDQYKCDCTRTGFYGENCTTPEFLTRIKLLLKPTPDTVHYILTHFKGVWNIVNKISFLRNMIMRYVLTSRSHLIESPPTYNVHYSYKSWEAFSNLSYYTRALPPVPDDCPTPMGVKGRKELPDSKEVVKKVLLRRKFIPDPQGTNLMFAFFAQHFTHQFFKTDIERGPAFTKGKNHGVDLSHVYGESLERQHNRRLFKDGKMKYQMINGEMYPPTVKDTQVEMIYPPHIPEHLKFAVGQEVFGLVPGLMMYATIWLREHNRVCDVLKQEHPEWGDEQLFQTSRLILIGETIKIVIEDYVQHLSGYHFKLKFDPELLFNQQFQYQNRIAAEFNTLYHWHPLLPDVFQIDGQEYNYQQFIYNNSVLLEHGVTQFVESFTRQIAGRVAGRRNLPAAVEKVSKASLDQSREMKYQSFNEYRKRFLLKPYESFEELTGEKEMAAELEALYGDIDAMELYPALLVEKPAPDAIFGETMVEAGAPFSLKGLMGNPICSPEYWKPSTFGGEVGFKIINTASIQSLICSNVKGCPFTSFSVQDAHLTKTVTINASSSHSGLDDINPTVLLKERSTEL

Calu-1 [15] = experiment: Cytotoxicity against Homo sapiens (human) Calu1 cells at 10 uM after 48 hr by propidium iodide-based fluorometric assay; assay type: functional; settings: Calu-1, 48 h, read-out: GI
[16] = biological target: T2, Beta-glucuronidase (Homo sapiens) (UniProt P08236); experiment: Inhibition of beta-glucuronidase (unknown origin) using p-nitrophenyl-beta-D-glucopyranosiduronic acid as substrate at 1 uM after 30 min by spectrophotometric analysis
T2 sequence (whole entry): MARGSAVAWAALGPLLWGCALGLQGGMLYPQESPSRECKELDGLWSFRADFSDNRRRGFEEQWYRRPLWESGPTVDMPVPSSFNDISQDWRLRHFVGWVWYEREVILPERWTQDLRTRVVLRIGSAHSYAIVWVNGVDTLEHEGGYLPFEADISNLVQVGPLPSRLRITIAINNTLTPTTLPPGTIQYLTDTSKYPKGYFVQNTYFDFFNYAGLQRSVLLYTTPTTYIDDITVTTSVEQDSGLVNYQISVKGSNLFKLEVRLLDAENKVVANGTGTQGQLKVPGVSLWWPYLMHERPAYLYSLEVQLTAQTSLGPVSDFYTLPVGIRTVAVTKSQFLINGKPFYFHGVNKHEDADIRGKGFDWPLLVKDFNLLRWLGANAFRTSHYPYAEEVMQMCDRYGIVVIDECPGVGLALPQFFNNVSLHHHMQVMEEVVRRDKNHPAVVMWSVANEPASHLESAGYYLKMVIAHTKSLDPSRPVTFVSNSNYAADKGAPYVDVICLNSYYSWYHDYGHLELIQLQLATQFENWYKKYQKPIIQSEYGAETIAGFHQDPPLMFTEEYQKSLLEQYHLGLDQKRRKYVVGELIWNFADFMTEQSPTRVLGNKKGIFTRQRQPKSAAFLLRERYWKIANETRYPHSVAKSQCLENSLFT

ACHN [17] = experiment: Cytotoxicity against Homo sapiens (human) ACHN cells at 10 uM after 48 hr by propidium iodide-based fluorometric assay; assay type: functional; settings: read-out: GI
[18] = tested on: Radical scavenging activity; experiment: Antioxidant activity assessed as DPPH radical scavenging activity at 1 uM after 20 min by spectrophotometric analysis; assay type: functional
PANC-1 [19] = experiment: Cytotoxicity against Homo sapiens (human) PANC1 cells at 10 uM after 48 hr by propidium iodide-based fluorometric assay; assay type: functional; settings: PANC-1, 48 h, read-out: GI
[20] = Antioxidant activity assessed as reduction of potassium ferricynide at 1 uM after 10 min by spectrophotometric analysis; assay type: functional; design: scale not given: the % may be the effect or the level left
Trypsin (Homo sapiens) = Trypsin (Homo sapiens) (UniProt P07477+P07478+P35030); experiment: Inhibition of trypsin (unknown origin) using bovine serum albumin as substrate at 1 uM incubated for 20 min prior to substrate addition measured after 25 min by Lowry method; assay type: protein assay
[21] = biological target: T3, Prostaglandin G/H synthase 1 (Ovis aries) (UniProt P05979); settings: at 1 µM;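 note: colorimetric read-out, measured after 5 min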
T3 sequence (whole entry): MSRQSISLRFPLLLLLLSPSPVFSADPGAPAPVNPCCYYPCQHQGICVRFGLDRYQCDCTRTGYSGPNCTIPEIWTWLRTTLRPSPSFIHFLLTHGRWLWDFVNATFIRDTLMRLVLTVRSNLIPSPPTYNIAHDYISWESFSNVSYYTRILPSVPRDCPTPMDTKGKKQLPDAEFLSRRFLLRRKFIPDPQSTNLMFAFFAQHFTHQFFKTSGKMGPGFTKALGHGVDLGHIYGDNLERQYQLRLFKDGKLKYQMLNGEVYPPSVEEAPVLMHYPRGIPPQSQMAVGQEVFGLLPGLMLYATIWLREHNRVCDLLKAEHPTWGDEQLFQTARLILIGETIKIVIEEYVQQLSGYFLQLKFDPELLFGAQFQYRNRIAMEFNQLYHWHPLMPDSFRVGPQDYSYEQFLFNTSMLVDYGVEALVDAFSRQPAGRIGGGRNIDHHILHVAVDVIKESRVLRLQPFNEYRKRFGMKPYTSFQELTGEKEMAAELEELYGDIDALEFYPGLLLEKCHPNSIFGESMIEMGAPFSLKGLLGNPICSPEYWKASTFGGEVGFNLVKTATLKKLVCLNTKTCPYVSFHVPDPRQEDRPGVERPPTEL
Description: Inhibition of Ovis aries (sheep) COX1 at 1 uM after 5 min by colorimetric analysis

[22] = Cytotoxicity against Homo sapiens (human) H460 cells at 10 uM after 48 hr by propidium iodide-based fluorometric assay; assay type: functional; settings: NCI-H460, 48 h, read-out: GI
HCT-116 [23] = experiment: Cytotoxicity against Homo sapiens (human) HCT116 cells at 700 nM after 48 hr by propidium iodide-based fluorometric assay; assay type: functional; settings: HCT-116, 48 h, read-out: GI
Calu-1 [24] = experiment: Cytotoxicity against Homo sapiens (human) Calu1 cells at 700 nM after 48 hr by propidium iodide-based fluorometric assay; assay type: functional; settings: Calu-1, 48 h, read-out: GI
[25] = Cytotoxicity against Homo sapiens (human) H460 cells at 700 nM after 48 hr by propidium iodide-based fluorometric assay; assay type: functional; settings: NCI-H460, 48 h, read-out: GI
PANC-1 [26] = experiment: Cytotoxicity against Homo sapiens (human) PANC1 cells at 700 nM after 48 hr by propidium iodide-based fluorometric assay; assay type: functional; settings: PANC-1, 48 h, read-out: GI
ACHN [27] = experiment: Cytotoxicity against Homo sapiens (human) ACHN cells at 700 nM after 48 hr by propidium iodide-based fluorometric assay; assay type: functional; settings: read-out: GI
[28] = Antioxidant activity assessed as hydroxyl radical scavenging activity at 1 mM by spectrophotometric analysis; assay type: functional
[29] = Antioxidant activity assessed as reduction of potassium ferricynide at 1 mM after 10 min by spectrophotometric analysis; assay type: functional; design: scale not given: the % may be the effect or the level left

| SMILES | inhibition at 10 µM (THP-1 [9]) [%] | Activity [10] [%] | inhibition of growth at 10 µM (HCT-116 [11]) [%] | Activity [12] [%] | inhibition at 10 µM (THP-1 [13]) [%] | inhibition [14] [%] | inhibition of growth at 10 µM (Calu-1 [15]) [%] | inhibition [16] [%] | inhibition of growth at 10 µM (ACHN [17]) [%] | Activity [18] [%] | inhibition of growth at 10 µM (PANC-1 [19]) [%] | Activity [20] [%] | inhibition (Trypsin (Homo sapiens)) [%] | inhibition [21] [%] | inhibition of growth at 10 µM [22] [%] | further results |
| --- | --- | --- | --- | --- | --- | --- | --- | --- | --- | --- | --- | --- | --- | --- | --- | --- |
| Nc1ccn([C@@H]2O[C@H](CO)[C@@H](O)C2(F)F)c(=O)n1 [GEMCITABINE] | – | – | – | – | – | – | – | – | – | – | – | – | – | – | – | inhibition of growth at 0.5 µM (ACHN [1]): 84%; inhibition of growth at 0.5 µM (HCT-116 [2]): 86%; inhibition of growth at 0.5 µM [3]: 79%; inhibition of growth at 0.5 µM (PANC-1 [4]): 78%; inhibition of growth at 0.5 µM (Calu-1 [5]): 87% |
| C[C@@H]1C[C@H]2[C@@H]3CCC4=CC(=O)C=C[C@]4(C)[C@@]3(F)[C@@H](O)C[C@]2(C)[C@@]1(O)C(=O)CO [DEXAMETHASONE] | – | – | – | – | – | – | – | – | – | – | – | – | – | – | – | inhibition at 1 µM (THP-1 [6]): 72%; inhibition at 1 µM (THP-1 [7]): 94%; Activity [8]: 0% |
| COc1cc(OC)c(/C=C/C(=O)c2cccc(NC(=O)c3ccccc3)c2)c(OC)c1Br | 98 | 54.1 | 0 | 65 | 91 | 65.7 | 6 | 49.6 | 21 | 49.4 | 10 | 46.6 | 58.1 | 51.9 | 14 | – |
| COc1cc(OC)c(/C=C/C(=O)c2cccc(NC(=O)c3cccc(Br)c3)c2)c(OC)c1Br | 75 | 23.6 | 0 | 31 | 4 | 88.4 | 0 | 84.7 | 6 | 42.6 | 0 | 39.7 | 66.5 | 41.7 | 6 | – |
| CN1CC[C@H](c2c(O)cc(O)c3c(=O)cc(-c4ccccc4Cl)oc23)[C@H](O)C1 [ALVOCIDIB] | – | – | – | – | – | – | – | – | – | – | – | – | – | – | – | inhibition of growth at 0.7 µM (HCT-116 [23]): 83%; inhibition of growth at 0.7 µM (Calu-1 [24]): 82%; inhibition of growth at 0.7 µM [25]: 73%; inhibition of growth at 0.7 µM (PANC-1 [26]): 68%; inhibition of growth at 0.7 µM (ACHN [27]): 73% |
| COc1ccc(C(=O)Nc2cccc(C(=O)/C=C/c3c(OC)cc(OC)c(Br)c3OC)c2)cc1 | 94 | 21.2 | 98 | 65 | 63 | 38 | 99 | 34 | 97 | 36.3 | 99 | 26.9 | 39.6 | 19.6 | 98 | – |
| COc1cc(OC)c(/C=C/C(=O)c2cccc(NC(=O)c3ccc(F)cc3)c2)c(OC)c1Br | 97 | 33.4 | 64 | 49 | 85 | 83.3 | 60 | 79.4 | 69 | 44.3 | 66 | 43.9 | 72.9 | 58.9 | 62 | – |
| COc1cc(OC)c(/C=C/C(=O)c2cccc(NC(=O)c3ccccc3C(F)(F)F)c2)c(OC)c1Br | 95 | 35.9 | 6 | 62 | 85 | 87.9 | 0 | 76.9 | 6 | 44.6 | 3 | 42.9 | 68.4 | 39.9 | 11 | – |
| O=C1O[C@H]([C@@H](O)CO)C(O)=C1O | – | – | – | – | – | – | – | – | – | – | – | – | – | – | – | Activity [28]: 45.9%; Activity [29]: 78.9% |
| COc1cc(OC)c(/C=C/C(=O)c2cccc(NC(=O)c3ccc(C(C)(C)C)cc3)c2)c(OC)c1Br | 96 | 27.3 | 10 | 56 | 83 | 85.8 | 32 | 82.5 | 35 | 43.6 | 37 | 36.8 | 69.6 | 64.6 | 51 | – |
